Data: US9540381B2, “Anti-angiogenesis compound, intermediate and use thereof” (Guangzhou KangRui Biological Pharmaceutical Technology Co., …, priority 2013, dated 2017)
“Also recorded” adds a separate entry of the source.

Legend:
[1] = target: T1, BRAF (Homo sapiens, UniProt P15056); assay: Inhibition specificity, BRAF; type: biochemical; conditions: 5000 nM, average of two tests; read-out: Average Inhibition Rate (%) BRAF
T1 construct: purchased UPSTATE

[2] = target: T2, PDGFR-β (Homo sapiens, UniProt P09619); assay: Kinase inhibition dosage effect, PDGFR-β; type: biochemical; conditions: for IC50: [ATP] 30 μM, 3 hr; for Hill PDGFR-β: dose-effect curve fit
T2 construct: purchased Upstate
T2 sequence (P09619 33-1106, species assumed): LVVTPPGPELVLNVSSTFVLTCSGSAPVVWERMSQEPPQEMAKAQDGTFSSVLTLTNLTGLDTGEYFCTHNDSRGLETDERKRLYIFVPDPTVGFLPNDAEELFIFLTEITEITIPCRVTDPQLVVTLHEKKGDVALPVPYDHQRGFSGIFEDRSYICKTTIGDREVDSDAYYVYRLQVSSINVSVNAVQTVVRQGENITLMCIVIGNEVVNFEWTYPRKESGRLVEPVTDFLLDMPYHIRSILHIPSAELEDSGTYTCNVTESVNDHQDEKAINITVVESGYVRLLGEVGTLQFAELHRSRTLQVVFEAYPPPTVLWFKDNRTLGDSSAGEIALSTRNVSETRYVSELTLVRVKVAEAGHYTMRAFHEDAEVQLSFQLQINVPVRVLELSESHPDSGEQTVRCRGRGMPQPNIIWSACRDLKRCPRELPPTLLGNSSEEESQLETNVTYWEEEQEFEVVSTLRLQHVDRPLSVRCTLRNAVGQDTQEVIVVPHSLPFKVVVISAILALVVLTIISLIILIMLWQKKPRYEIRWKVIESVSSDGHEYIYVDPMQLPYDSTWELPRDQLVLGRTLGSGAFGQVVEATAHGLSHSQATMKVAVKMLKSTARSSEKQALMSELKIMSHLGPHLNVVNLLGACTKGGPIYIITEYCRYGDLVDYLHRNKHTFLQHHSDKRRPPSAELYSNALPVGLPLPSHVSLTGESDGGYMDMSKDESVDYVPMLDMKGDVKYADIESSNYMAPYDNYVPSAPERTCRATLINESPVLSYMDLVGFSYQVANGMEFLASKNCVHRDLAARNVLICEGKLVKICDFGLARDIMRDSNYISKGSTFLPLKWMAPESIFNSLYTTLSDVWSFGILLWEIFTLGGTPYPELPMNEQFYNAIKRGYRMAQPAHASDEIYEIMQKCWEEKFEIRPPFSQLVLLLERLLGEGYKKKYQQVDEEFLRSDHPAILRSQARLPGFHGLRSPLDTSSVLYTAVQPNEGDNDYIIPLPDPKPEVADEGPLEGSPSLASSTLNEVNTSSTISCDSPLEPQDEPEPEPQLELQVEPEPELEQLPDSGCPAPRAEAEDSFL

[3] = target: T3, SRC (Homo sapiens, UniProt P12931); assay: Inhibition specificity, SRC; type: biochemical; conditions: 5000 nM, average of two tests; read-out: Average Inhibition Rate (%) SRC
T3 construct: purchased INVITROGEN
T3 sequence (P12931 whole entry, species assumed): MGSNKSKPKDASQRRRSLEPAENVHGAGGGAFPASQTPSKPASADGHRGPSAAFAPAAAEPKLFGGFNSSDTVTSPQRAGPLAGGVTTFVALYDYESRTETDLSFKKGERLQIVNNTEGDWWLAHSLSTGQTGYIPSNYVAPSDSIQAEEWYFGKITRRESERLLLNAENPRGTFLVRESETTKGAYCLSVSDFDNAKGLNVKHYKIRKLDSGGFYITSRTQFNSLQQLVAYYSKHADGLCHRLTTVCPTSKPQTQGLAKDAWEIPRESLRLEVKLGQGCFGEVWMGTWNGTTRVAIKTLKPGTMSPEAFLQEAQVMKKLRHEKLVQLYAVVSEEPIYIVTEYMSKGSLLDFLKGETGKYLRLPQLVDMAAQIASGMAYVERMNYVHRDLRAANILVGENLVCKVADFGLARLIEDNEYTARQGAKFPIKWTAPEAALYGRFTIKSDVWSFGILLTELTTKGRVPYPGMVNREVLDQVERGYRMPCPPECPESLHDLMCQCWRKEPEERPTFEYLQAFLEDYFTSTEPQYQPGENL

[4] = target: T4, ROCK1 (Homo sapiens, UniProt Q13464); assay: Inhibition specificity, ROCK1; type: biochemical; conditions: 5000 nM, average of two tests; read-out: Average Inhibition Rate (%) ROCK1
T4 construct: purchased CARNA
T4 sequence (Q13464 whole entry, species assumed): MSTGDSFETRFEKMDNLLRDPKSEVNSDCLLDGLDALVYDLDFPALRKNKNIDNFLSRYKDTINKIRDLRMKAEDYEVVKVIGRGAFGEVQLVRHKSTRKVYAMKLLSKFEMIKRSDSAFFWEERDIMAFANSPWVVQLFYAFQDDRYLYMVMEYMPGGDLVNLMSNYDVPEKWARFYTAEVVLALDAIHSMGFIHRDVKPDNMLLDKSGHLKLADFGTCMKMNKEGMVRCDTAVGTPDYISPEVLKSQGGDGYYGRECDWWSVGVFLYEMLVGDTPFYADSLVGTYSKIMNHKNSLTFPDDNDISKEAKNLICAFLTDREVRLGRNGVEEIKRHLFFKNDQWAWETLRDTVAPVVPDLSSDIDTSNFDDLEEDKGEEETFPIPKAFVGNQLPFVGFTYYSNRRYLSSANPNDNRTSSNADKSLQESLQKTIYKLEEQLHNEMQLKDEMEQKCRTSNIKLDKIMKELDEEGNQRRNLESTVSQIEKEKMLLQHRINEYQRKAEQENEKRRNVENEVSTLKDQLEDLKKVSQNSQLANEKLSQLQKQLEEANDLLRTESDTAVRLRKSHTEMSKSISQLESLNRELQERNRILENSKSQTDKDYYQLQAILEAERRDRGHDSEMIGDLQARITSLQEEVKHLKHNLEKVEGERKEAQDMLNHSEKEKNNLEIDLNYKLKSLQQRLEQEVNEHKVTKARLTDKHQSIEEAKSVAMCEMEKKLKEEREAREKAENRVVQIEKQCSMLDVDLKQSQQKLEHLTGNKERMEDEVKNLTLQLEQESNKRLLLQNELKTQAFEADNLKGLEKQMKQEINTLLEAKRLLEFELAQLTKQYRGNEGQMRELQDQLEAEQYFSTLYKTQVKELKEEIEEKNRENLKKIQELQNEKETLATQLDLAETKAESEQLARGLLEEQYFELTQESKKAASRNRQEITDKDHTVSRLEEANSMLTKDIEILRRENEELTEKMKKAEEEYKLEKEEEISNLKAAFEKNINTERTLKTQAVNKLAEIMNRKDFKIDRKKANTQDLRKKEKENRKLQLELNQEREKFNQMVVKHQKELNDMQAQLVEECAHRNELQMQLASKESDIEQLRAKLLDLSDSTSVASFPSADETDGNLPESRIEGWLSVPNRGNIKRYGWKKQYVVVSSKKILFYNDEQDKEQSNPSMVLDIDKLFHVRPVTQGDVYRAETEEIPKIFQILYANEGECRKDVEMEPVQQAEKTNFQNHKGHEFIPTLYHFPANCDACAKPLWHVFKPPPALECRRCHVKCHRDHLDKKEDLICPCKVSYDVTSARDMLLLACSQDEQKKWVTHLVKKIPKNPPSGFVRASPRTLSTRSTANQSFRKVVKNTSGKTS

[5] = target: T5, KIT (Homo sapiens, UniProt P10721); assay: Inhibition specificity, KIT; type: biochemical; conditions: 5000 nM, average of two tests; read-out: Average Inhibition Rate (%) KIT
T5 construct: purchased INVITROGEN

[6] = target: T6, MEK1 (Homo sapiens, UniProt Q02750); assay: Inhibition specificity, MEK1; type: biochemical; conditions: 5000 nM, average of two tests; read-out: Average Inhibition Rate (%) MEK1
T6 construct: purchased UPSTATE
T6 sequence (Q02750 whole entry, species assumed): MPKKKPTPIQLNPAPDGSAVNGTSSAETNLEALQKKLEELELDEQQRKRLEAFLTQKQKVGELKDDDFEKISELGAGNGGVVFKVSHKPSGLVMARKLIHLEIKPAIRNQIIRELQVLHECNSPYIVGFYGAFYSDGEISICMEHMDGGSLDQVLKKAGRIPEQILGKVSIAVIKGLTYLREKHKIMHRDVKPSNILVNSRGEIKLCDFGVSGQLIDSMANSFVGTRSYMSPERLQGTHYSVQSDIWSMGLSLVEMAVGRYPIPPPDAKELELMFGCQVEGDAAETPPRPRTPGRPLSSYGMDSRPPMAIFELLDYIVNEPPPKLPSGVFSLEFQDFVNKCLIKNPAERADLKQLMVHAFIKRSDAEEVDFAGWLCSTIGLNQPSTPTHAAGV

[7] = tested on: corneal angiogenesis; assay: Rabbit corneal chemical burn model; type: in vivo, white rabbits; conditions: 100 uM subconjunctival injection then drops twice a day, 7 days
Procedure: This test tested in total 5 white rabbits who were 5-6 month old. After narcotizing, in the center of the cornea, the right eye was treated with a 6 mm diameter of round filter paper which was soaked with 0.1M NaOH, induced for 3 min to produce chemical burn modeling.

[8] = target: T7, MAPK3 (Homo sapiens, UniProt P27361); assay: Inhibition specificity, MAPK3; type: biochemical; conditions: 5000 nM, average of two tests; read-out: Average Inhibition Rate (%) MAPK3
T7 construct: purchased INVITROGEN

[9] = target: T8, AURORA-B (Homo sapiens, UniProt Q96GD4); assay: Inhibition specificity, AURORA-B; type: biochemical; conditions: 5000 nM, average of two tests; read-out: Average Inhibition Rate (%) AURORA-B
T8 construct: purchased CARNA
T8 sequence (Q96GD4 whole entry): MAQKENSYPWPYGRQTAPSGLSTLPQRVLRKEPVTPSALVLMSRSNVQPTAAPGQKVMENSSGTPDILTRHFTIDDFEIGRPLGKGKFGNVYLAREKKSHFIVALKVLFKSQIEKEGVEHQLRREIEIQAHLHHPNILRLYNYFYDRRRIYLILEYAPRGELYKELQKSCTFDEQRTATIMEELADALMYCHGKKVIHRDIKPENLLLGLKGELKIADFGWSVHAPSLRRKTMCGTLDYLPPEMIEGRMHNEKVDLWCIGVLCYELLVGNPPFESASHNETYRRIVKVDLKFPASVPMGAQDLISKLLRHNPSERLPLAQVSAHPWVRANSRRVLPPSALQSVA

[10] = target: T9, VEGFR2 (KDR) (Homo sapiens, UniProt P35968); assay: Kinase inhibition dosage effect, KDR; type: biochemical; conditions: for IC50: [ATP] 80 μM, 3 hr; for Hill KDR: dose-effect curve fit
T9 construct: purchased Invitrogen
T9 sequence (P35968 20-1356, species assumed): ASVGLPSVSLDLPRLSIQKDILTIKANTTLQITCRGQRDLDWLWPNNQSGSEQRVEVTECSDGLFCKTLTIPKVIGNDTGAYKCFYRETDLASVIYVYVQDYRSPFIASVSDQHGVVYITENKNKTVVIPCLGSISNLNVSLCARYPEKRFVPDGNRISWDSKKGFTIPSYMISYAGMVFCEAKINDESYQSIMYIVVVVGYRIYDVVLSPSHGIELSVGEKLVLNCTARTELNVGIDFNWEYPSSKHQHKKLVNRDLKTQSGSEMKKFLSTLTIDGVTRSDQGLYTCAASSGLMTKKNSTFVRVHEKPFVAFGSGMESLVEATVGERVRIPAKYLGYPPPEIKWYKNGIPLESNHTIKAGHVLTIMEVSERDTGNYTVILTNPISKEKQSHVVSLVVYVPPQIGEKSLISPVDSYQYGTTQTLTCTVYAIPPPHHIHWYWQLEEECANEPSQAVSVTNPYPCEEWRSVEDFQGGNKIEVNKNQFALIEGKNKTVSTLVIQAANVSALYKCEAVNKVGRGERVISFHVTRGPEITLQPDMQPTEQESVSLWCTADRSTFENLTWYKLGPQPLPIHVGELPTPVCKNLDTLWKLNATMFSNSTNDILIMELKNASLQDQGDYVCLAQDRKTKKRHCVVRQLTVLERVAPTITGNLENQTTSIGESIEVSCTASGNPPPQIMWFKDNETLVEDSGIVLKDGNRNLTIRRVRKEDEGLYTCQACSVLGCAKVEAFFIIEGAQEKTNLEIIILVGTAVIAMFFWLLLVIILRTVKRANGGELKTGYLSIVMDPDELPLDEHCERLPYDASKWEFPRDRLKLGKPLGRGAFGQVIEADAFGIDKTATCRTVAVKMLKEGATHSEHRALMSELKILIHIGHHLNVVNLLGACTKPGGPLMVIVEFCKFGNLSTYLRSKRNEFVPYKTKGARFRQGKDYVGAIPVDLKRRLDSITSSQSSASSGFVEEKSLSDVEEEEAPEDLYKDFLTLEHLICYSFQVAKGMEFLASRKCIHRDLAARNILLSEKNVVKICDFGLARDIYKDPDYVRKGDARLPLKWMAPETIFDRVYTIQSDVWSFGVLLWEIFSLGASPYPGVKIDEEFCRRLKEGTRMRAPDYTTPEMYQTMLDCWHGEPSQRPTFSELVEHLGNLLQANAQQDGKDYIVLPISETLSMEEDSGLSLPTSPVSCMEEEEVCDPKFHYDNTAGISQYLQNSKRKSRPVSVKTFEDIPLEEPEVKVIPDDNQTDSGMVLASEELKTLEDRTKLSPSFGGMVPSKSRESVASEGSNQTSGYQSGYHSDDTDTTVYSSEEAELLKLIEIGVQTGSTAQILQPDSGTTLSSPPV

[11] = target: T10, MET (Homo sapiens, UniProt P08581); assay: Inhibition specificity, MET; type: biochemical; conditions: 5000 nM, average of two tests; read-out: Average Inhibition Rate (%) MET
T10 construct: purchased INVITROGEN

[12] = tested on: corneal angiogenesis; assay: Mice corneal chemical burn model; conditions: 100 uM subconjunctival injection then drops twice a day, 7 days
[13] = tested on: choroidal angiogenesis; assay: Laser-induced choroidal angiogenesis (CNV) animal model; type: in vivo, c57/BL mice; conditions: 1 uM injected into the eye after laser, 5 days
Procedure: The […]57/BL (Jax Lab, US), and the experiment is conducted on laser-induced Choroidal Angiogenesis (CNV) animal model. This model is a widely used animal model used for studying the influence of a medicament on CNV development of wet macular degeneration. […] Only the laser points, which were observed as bubble indicating the fracture of Bruch membrane, were considered to be studied. Inject immediately after laser implementation: the right eye was injected 1 uM compound 2-2, and the left eye was injected PBS having the same volume as the medicament as a control. Kill the animal 5 days after injection and obtain the eyeball. After removing the anterior segment, vitreous body and retina, prepare flat mounts of choroid and meanwhile dye with isolectin. Take photos by Zeiss fluorescence microscope system and measure CNV area.

Nc1cc(Oc2ccc3c(C(=O)Nc4cccc(C(F)(F)F)c4)cccc3n2)ncn1 [Compound 2-1]
inhibition at 5 µM [1]: 4.11% | inhibition activity on PDGFR-β (in words) [2]: good inhibition activity | IC50 [2]: 1.94 µM | Inhibition Rate on PDGFR-β (%) ([2]; concentration 0.0002823 (uM)): 0.72% | Inhibition Rate on PDGFR-β (%) ([2]; concentration 0.0008468 (uM)): 2.69% | Inhibition Rate on PDGFR-β (%) ([2]; concentration 0.0025403 (uM)): 0.80% | Inhibition Rate on PDGFR-β (%) ([2]; concentration 0.0076208 (uM)): 1.43% | Inhibition Rate on PDGFR-β (%) ([2]; concentration 0.0228624 (uM)): 7.89% | Inhibition Rate on PDGFR-β (%) ([2]; concentration 0.0685871 (uM)): 10.09% | Inhibition Rate on PDGFR-β (%) ([2]; concentration 0.2057613 (uM)): 12.85% | Inhibition Rate on PDGFR-β (%) ([2]; concentration 0.6172840 (uM)): 23.86% | Inhibition Rate on PDGFR-β (%) ([2]; concentration 1.8518519 (uM)): 46.85% | Inhibition Rate on PDGFR-β (%) ([2]; concentration 5.5555556 (uM)): 73.86% | Inhibition Rate on PDGFR-β (%) ([2]; concentration 16.6666667 (uM)): 86.35% | Inhibition Rate on PDGFR-β (%) ([2]; concentration 50 (uM)): 85.78% | Hill PDGFR-β [2]: 1.09 | inhibition at 5 µM [3]: ~21% | inhibition at 5 µM [4]: 2.63% | inhibition at 5 µM [5]: ~72% | inhibition at 5 µM [6]: 1.06% | effect on corneal angiogenesis (in words, FIG. 12) [7]: obviously reduces corneal angiogenesis | inhibition at 5 µM [8]: 1.44% | inhibition at 5 µM [9]: ~31% | inhibition activity on KDR (in words) [10]: good inhibition activity | IC50 [10]: 0.0277 µM | Inhibition Rate on KDR (%) ([10]; concentration 0.0002823 (uM)): 2.75% | Inhibition Rate on KDR (%) ([10]; concentration 0.0008468 (uM)): 0.61% | Inhibition Rate on KDR (%) ([10]; concentration 0.0025403 (uM)): 7.27% | Inhibition Rate on KDR (%) ([10]; concentration 0.0076208 (uM)): 20.59% | Inhibition Rate on KDR (%) ([10]; concentration 0.0228624 (uM)): 45.65% | Inhibition Rate on KDR (%) ([10]; concentration 0.0685871 (uM)): 71.24% | Inhibition Rate on KDR (%) ([10]; concentration 0.2057613 (uM)): 84.37% | Inhibition Rate on KDR (%) ([10]; concentration 0.6172840 (uM)): 91.13% | Inhibition Rate on KDR (%) ([10]; concentration 1.8518519 (uM)): 94.18% | Inhibition Rate on KDR (%) ([10]; concentration 5.5555556 (uM)): 95.30% | Inhibition Rate on KDR (%) ([10]; concentration 16.6666667 (uM)): 94.60% | Inhibition Rate on KDR (%) ([10]; concentration 50 (uM)): 94.91% | Hill KDR [10]: 1.066 | inhibition at 5 µM [11]: 3.83%

Nc1nccc(Oc2ccc3c(C(=O)Nc4cccc(C(F)(F)F)c4)cccc3n2)n1 [Compound 2-2]
effect on corneal angiogenesis and bleeding (in words, FIG. 11) [12]: obviously reduces angiogenesis and bleeding | inhibition at 5 µM [1]: 37.4% | inhibition activity on PDGFR-β (in words) [2]: good inhibition activity | IC50 [2]: 0.15 µM | Inhibition Rate on PDGFR-β (%) ([2]; concentration 0.0002823 (uM)): 0.62% | Inhibition Rate on PDGFR-β (%) ([2]; concentration 0.0008468 (uM)): 0.49% | Inhibition Rate on PDGFR-β (%) ([2]; concentration 0.0025403 (uM)): −0.84% | Inhibition Rate on PDGFR-β (%) ([2]; concentration 0.0076208 (uM)): 2.85% | Inhibition Rate on PDGFR-β (%) ([2]; concentration 0.0228624 (uM)): 15.13% | Inhibition Rate on PDGFR-β (%) ([2]; concentration 0.0685871 (uM)): 34.21% | Inhibition Rate on PDGFR-β (%) ([2]; concentration 0.2057613 (uM)): 55.90% | Inhibition Rate on PDGFR-β (%) ([2]; concentration 0.6172840 (uM)): 78.29% | Inhibition Rate on PDGFR-β (%) ([2]; concentration 1.8518519 (uM)): 91.57% | Inhibition Rate on PDGFR-β (%) ([2]; concentration 5.5555556 (uM)): 96.43% | Inhibition Rate on PDGFR-β (%) ([2]; concentration 16.6666667 (uM)): 97.95% | Inhibition Rate on PDGFR-β (%) ([2]; concentration 50 (uM)): 98.80% | Hill PDGFR-β [2]: 0.92 | inhibition at 5 µM [3]: ~65% | inhibition of choroidal angiogenesis (in words, FIG. 9) [13]: could obviously inhibit the choroidal angiogenesis; also recorded: obviously inhibiting choroidal angiogenesis | inhibition at 5 µM [4]: 1.39% | inhibition at 5 µM [5]: ~92% | inhibition at 5 µM [6]: 4.96% | effect on corneal angiogenesis (in words, FIG. 12) [7]: obviously reduces corneal angiogenesis | inhibition at 5 µM [8]: 1.12% | inhibition at 5 µM [9]: 13.6% | inhibition activity on KDR (in words) [10]: good inhibition activity | IC50 [10]: 0.00731 µM | Inhibition Rate on KDR (%) ([10]; concentration 0.0002823 (uM)): 5.09% | Inhibition Rate on KDR (%) ([10]; concentration 0.0008468 (uM)): 11.82% | Inhibition Rate on KDR (%) ([10]; concentration 0.0025403 (uM)): 25.59% | Inhibition Rate on KDR (%) ([10]; concentration 0.0076208 (uM)): 49.36% | Inhibition Rate on KDR (%) ([10]; concentration 0.0228624 (uM)): 78.25% | Inhibition Rate on KDR (%) ([10]; concentration 0.0685871 (uM)): 90.14% | Inhibition Rate on KDR (%) ([10]; concentration 0.2057613 (uM)): 92.95% | Inhibition Rate on KDR (%) ([10]; concentration 0.6172840 (uM)): 94.82% | Inhibition Rate on KDR (%) ([10]; concentration 1.8518519 (uM)): 97.30% | Inhibition Rate on KDR (%) ([10]; concentration 5.5555556 (uM)): 96.50% | Inhibition Rate on KDR (%) ([10]; concentration 16.6666667 (uM)): 94.47% | Inhibition Rate on KDR (%) ([10]; concentration 50 (uM)): 95.99% | Hill KDR [10]: 1.175 | inhibition at 5 µM [11]: 2.46%
